Measurements: ChEMBL document CHEMBL4610024, “The ceramide analogue N-(1-hydroxy-3-morpholino-1-phenylpropan-2-yl)decanamide induces large lipid droplet accumulation and highlights the effect of LAMP-2 deficiency on lipid droplet degradation” (Bioorg Med Chem Lett, 2020)
Calls of active or inactive are those of the source. The rule behind the calls is not given here.

Experiments:
L929 [1] = experiment: Induction of large autophagosome formation in CRISPR/Cas9-mediated LAMP2 knocked out mouse L cells assessed as loosened multilamellar bodies at 40 uM measured after 17 hrs by transmission electron microscopy analysis; assay type: functional, cell-based
L929 [2] = experiment: Induction of autophagy in CRISPR/Cas9-mediated LAMP2 knocked out mouse L cells assessed as increase in […] puncta at 40 uM measured after 17 hrs by Hoechst 33342 staining based assay; assay type: functional, cell-based
[3] = target: T1, Lysosome-associated membrane glycoprotein 2 (Mus musculus) (UniProt P17047); experiment: Induction of LAMP2-mediated lipid droplet degradation in mouse L cells assessed as increase in length of long axis of lipid droplet at 40 uM measured after 17 hrs by transmission electron microscopy analysis; assay type: cell-based; conditions: L929
T1 sequence (whole entry): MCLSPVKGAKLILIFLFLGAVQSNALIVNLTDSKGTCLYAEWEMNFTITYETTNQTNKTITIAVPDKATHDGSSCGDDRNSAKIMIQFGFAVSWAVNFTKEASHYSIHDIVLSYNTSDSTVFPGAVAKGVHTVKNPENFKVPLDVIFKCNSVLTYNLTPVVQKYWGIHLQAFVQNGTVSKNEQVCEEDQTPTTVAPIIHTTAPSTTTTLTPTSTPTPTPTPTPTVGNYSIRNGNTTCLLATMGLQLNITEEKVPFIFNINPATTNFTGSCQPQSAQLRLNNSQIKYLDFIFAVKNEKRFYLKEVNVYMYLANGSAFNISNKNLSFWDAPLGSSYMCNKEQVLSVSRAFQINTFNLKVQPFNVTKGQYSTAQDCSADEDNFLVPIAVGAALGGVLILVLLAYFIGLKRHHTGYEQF

L929 [4] = experiment: Induction of large autophagosome formation in CRISPR/Cas9-mediated LAMP2 knocked out mouse L cells assessed as decrease in multilamellar bodies layers at 40 uM measured after 17 hrs by transmission electron microscopy analysis; assay type: functional, cell-based
[5] = target: T1, Lysosome-associated membrane glycoprotein 2 (Mus musculus); experiment: Induction of LAMP2-mediated lipid droplet enlargement in mouse L cells at 40 uM measured after 17 hrs by LipiDye staining based assay; assay type: cell-based; conditions: L929
L929 [6] = experiment: Induction of lipid droplet degradation in CRISPR/Cas9-mediated LAMP2 knocked out mouse L cells assessed as decrease in number of lipid droplet with long axis exceeding 1 um at 40 uM measured after 17 hrs by transmission electron microscopy analysis; assay type: functional, cell-based
L929 [7] = experiment: Induction of autophagy in CRISPR/Cas9-mediated LAMP2 knocked out mouse L cells assessed as formation of LC3 puncta rim in other part of cell at 40 uM measured after 17 hrs by Hoechst 33342 staining based assay; assay type: functional
L929 [8] = experiment: Induction of lipid droplet degradation in CRISPR/Cas9-mediated LAMP2 knocked out mouse L cells at 40 uM measured after 17 hrs by LipiDye staining based assay; assay type: functional, cell-based
L929 [9] = experiment: Induction of large autophagosome formation in CRISPR/Cas9-mediated LAMP2 knocked out mouse L cells assessed as accumulation of abnormal multilamellar bodies at 40 uM measured after 17 hrs by transmission electron microscopy analysis; assay type: functional, cell-based
[10] = target: T1, Lysosome-associated membrane glycoprotein 2 (Mus musculus); experiment: Induction of LAMP2-mediated autophagy in mouse L cells assessed as increase in LC3 puncta at 40 uM measured after 17 hrs by Hoechst 33342 staining based assay; assay type: cell-based; conditions: L929
L929 [11] = experiment: Induction of large autophagosome formation in CRISPR/Cas9-mediated LAMP2 knocked out mouse L cells assessed as degradation of multilamellar bodies at 40 uM measured after 17 hrs by transmission electron microscopy analysis; assay type: functional, cell-based
L929 [12] = experiment: Induction of autophagy in CRISPR/Cas9-mediated LAMP2 knocked out mouse L cells assessed as formation of LC3 puncta rim around large autophagosome at 40 uM measured after 17 hrs by Hoechst 33342 staining based assay; assay type: functional, cell-based

Activity [3]: Active
Activity [5]: Active
Activity [10]: Active
SMILES: CCCCCCCCCC(=O)NC(CN1CCOCC1)C(O)c1ccccc1 (configuration not stated)
Activity (L929 [1]): Active
Activity (L929 [2]): Active
Activity (L929 [4]): Active
Activity (L929 [6]): inactive
Activity (L929 [7]): inactive
Activity (L929 [8]): inactive
Activity (L929 [9]): Active
Activity (L929 [11]): Active
Activity (L929 [12]): Active
